Laboratory results taken from PMC9186351, “Discovery of N-quinazolinone-4-hydroxy-2-quinolone-3-carboxamides as DNA gyrase B-targeted antibacterial agents” (Journal of Enzyme Inhibition and Medicinal Chemistry, 2022).
≈ marks a conversion by molar mass, not a printed value. Where “and” joins values, the source holds several entries; their conditions need not be identical. Equal entries are not always repeated. Where two headings read alike, the source gives them in different places.

Experiments:
S. aureus GyrB = biological target: T1, S. aureus GyrB (Staphylococcus aureus, UniProt P0A0K8); assay: S. aureus GyrB (Gyrase ATPase) inhibition assay, ADP-Glo; format: biochemical; settings: for IC50: IC50 for GyrB (µM, mean ± SD), S. aureus Gyrase ATPase inhibition, average of duplicates; for inhibition at 10 µM: read-out: GyrB inhibition rate (%) at 10 μM
T1 construct: purchased Inspiralis Ltd., Norwich, UK
T1 sequence (P0A0K8 whole entry): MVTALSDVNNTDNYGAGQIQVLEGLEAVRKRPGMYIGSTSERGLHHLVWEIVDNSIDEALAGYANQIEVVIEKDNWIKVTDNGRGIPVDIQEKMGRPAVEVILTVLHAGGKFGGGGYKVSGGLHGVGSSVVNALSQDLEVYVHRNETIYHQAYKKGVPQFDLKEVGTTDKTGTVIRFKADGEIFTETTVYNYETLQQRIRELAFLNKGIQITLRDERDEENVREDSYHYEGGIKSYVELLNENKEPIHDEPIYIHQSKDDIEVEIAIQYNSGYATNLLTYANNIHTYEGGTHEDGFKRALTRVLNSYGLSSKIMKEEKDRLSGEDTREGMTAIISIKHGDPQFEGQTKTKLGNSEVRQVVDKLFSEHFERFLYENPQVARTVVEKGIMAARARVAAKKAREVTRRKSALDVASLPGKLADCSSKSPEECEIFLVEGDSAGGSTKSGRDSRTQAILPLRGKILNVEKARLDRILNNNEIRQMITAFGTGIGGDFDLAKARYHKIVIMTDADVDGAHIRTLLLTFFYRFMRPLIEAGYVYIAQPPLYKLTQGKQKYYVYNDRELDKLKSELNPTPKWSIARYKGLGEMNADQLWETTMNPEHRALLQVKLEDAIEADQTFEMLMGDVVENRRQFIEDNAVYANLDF
T1 sequence (P20831 whole entry, further chain): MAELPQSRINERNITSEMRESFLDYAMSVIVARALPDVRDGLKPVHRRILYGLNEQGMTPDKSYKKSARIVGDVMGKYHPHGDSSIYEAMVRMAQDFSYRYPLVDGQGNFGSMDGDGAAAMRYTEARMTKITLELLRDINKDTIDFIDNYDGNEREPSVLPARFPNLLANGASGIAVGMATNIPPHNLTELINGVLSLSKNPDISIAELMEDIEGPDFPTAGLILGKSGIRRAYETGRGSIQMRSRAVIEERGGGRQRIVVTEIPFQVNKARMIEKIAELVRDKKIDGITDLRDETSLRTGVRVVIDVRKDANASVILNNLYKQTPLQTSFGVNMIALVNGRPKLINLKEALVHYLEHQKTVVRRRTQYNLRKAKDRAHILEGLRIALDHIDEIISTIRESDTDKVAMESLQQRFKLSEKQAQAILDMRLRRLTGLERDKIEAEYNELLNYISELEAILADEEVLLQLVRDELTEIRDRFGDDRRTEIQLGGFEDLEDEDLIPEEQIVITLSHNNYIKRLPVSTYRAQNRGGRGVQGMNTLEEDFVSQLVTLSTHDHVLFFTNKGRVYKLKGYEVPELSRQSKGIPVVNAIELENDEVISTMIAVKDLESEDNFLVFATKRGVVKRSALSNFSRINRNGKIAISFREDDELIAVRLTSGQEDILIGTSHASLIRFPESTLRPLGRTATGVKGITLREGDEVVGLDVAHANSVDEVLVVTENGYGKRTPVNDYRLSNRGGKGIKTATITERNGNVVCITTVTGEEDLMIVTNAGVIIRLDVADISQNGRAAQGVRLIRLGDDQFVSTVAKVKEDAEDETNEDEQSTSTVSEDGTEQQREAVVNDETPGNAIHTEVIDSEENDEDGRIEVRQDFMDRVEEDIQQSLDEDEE
Protocol: The IC50 values for S. aureus GyrB were determined according to our previously reported protocol.[16] For this assay, the reaction mixture (10 μL) consisted of 5 nM S. aureus Gyrase (Inspiralis Ltd., Norwich, UK), assay buffer [40 mM HEPES-KOH (pH 7.6), 10 mM magnesium acetate, 10 mM dithiothreitol, 50 g/L BSA, and 500 mM potassium glutamate], the test compound (0.01–100 μM), 1% DMSO, 10 nM linear pBR322 DNA, and […]. The target compound was dissolved in DMSO (10 mM). A series of dilutions (0.1–1000 μM) were prepared from the stock solution with the assay buffer and DMSO. The dilutions (1 μL) were respectively added to the PCR tubes along with the buffer (7 μL), the linear pBR322 DNA (0.5 μL), S. aureus Gyrase (0.5 μL), and ATP (1 μL). The PCR tubes were sealed and incubated at 37 °C for 30 min. The ADP-Glo reagent (40 μL) was added to stop the reaction and use up the remaining ATP.
The detection reagent (50 μL) was then added and mixed. After 5 min, the mixture in each PCR tube was put in the well of a 96-well plate and its luminescence was measured by the BioTek Synergy 2 microplate reader. The activity values (%) of S. aureus Gyrase treated by the test compound at different concentrations were determined based on the luminescence. GraphPad Prism version 5 software (GraphPad Software Inc., La Jolla, CA) was used to calculate the IC50 values.

[1] = tested on: methicillin-sensitive S. aureus (MSSA); assay: MIC by broth microdilution, MSSA isolates; format: cell-based; settings: Staphylococcus aureus
Protocol: All of the bacterial strains used in this study were obtained from the Collection Centre of Pathogen Microorganism of Chinese Academy of Medical Sciences (CAMS-CCPM-A) in China. All of the isolates were stored at −80 °C and streaked on tryptic soy agar (TSA) plates to obtain overnight cultures. The MICs of the test compounds were determined by the broth microdilution method in accordance with the Clinical and Laboratory Standards Institute (CLSI) guidelines.[20] Cation-adjusted Mueller-Hinton broth (CAMHB) was used as the growth medium for MIC assays. Briefly, 100 μL of serially diluted compounds (starting concentrations were 64 μg/mL) in CAMH broth were added to the wells of 96-well microtiter plates. Then, 10 µL of 5 × 10^6 CFU/mL bacterial culture was added to each well. […] The MIC was defined as the lowest concentration of a compound that inhibited visual growth of the bacteria. Vancomycin was set as the positive control for this assay.

[2] = ATCC 29213 / BAA-1708 / BAA-976 / MSSA, ATCC 29213, 15, 18-3, BAA976, BAA1708, span over isolates, read-out: MIC over the five MSSA isolates
[3] = ATCC 29213 / MSSA, MSSA ATCC 29213, read-out: MIC
[4] = BAA-976 / MSSA, MSSA BAA976, read-out: MIC
[5] = BAA-1708 / MSSA, MSSA BAA1708, read-out: MIC

Compound | IC50 (S. aureus GyrB) | inhibition at 10 µM (S. aureus GyrB) | melting point | further results
CCc1nc2ccccc2c(=O)n1NC(=O)c1c(O)c2ccccc2n(CC)c1=O [f14, N-(2-ethyl-4-oxoquinazolin-3(4H)-yl)-1-ethyl-4-hydroxy-2-oxo-1,2-dihydroquinoline-3-carboxamide] | 0.28 ± 0.04 µM |  |  | MIC [1, 2]: ≥ 32 µg/mL; MIC [1, 3]: > 64 µg/mL; MIC [1, 4]: 32 µg/mL (≈ 79.1 µM); MIC [1, 5]: 64 µg/mL (≈ 158 µM); MIC ([1]; MSSA, MSSA 15, read-out: MIC): 64 µg/mL (≈ 158 µM); MIC ([1]; MSSA, MSSA 18-3, read-out: MIC): > 64 µg/mL
C=CCn1c(=O)c(C(=O)NNC(=O)Cc2ccncc2)c(O)c2ccccc21 [AG-690/36469055] |  | 15% |  | 
CCCc1nc2ccccc2c(=O)n1NC(=O)c1c(O)c2ccccc2n(CC)c1=O [f15, N-(4-oxo-2-propylquinazolin-3(4H)-yl)-1-ethyl-4-hydroxy-2-oxo-1,2-dihydroquinoline-3-carboxamide] | 11.9 ± 2.3 µM |  | 158.6 to 160.7 °C | 
Cc1noc(NC(=O)c2c(O)c3cccc4c3n(c2=O)CCC4)c1C [AE-641/00628057] |  | 7% |  | 
CCCCCC(=O)NNC(=O)c1c(O)c2ccccc2n(CCC)c1=O [AG-690/11232780] |  | 3% |  | 
CCCCCc1nc2ccc(C)cc2c(=O)n1NC(=O)c1c(O)c2ccccc2n(CC)c1=O [f3, N-(6-methyl-4-oxo-2-pentylquinazolin-3(4H)-yl)-1-ethyl-4-hydroxy-2-oxo-1,2-dihydroquinoline-3-carboxamide] | 0.83 ± 0.11 µM |  | 160.6 to 162.3 °C | 
CCCCCc1nc2ccc(OC)cc2c(=O)n1NC(=O)c1c(O)c2ccccc2n(CC)c1=O [f4, N-(6-methoxy-4-oxo-2-pentylquinazolin-3(4H)-yl)-1-ethyl-4-hydroxy-2-oxo-1,2-dihydroquinoline-3-carboxamide] | 0.31 ± 0.07 µM |  | 98.7 to 99.9 °C | MIC [1, 2]: ≥ 32 µg/mL; MIC [1, 3]: > 64 µg/mL; MIC [1, 4]: 32 µg/mL (≈ 67.2 µM); MIC [1, 5]: > 64 µg/mL; MIC ([1]; MSSA, MSSA 15, read-out: MIC): 64 µg/mL (≈ 134 µM); MIC ([1]; MSSA, MSSA 18-3, read-out: MIC): 64 µg/mL (≈ 134 µM)
CCn1c(=O)c(C(=O)NNS(=O)(=O)c2ccc(Br)cc2)c(O)c2ccccc21 [AG-690/11765340] |  | 10% |  | 
CCCn1c(=O)c(C(=O)NNC(=O)Cc2ccccc2)c(O)c2ccccc21 [AG- 690/36956135] |  | 6% |  | 
CCCCCCn1c(=O)c(C(=O)Nc2ccc(Cl)cn2)c(O)c2ccccc21 [AG-690/11557825] |  | 6% |  | 
CCCCCc1nc2c(OC)cccc2c(=O)n1NC(=O)c1c(O)c2ccccc2n(CC)c1=O [f12, N-(8-methoxy-4-oxo-2-pentylquinazolin-3(4H)-yl)-1-ethyl-4-hydroxy-2-oxo-1,2-dihydroquinoline-3-carboxamide] | 0.878 µM and 0.88 µM |  | 178.3 to 180.1 °C | 
CCCCc1nc2ccccc2c(=O)n1NC(=O)c1c(O)c2ccccc2n(CC)c1=O [f16, N-(2-butyl-4-oxoquinazolin-3(4H)-yl)-1-ethyl-4-hydroxy-2-oxo-1,2-dihydroquinoline-3-carboxamide] | 2.34 ± 0.34 µM |  | 139.8 to 140.5 °C | 
CCCCCc1nc2cc(OC)ccc2c(=O)n1NC(=O)c1c(O)c2ccccc2n(CC)c1=O [f8, N-(7-methoxy-4-oxo-2-pentylquinazolin-3(4H)-yl)-1-ethyl-4-hydroxy-2-oxo-1,2-dihydroquinoline-3-carboxamide] | 7.9 ± 0.1 µM |  | 146.8 to 147.6 °C | 
CCCCCCn1c(=O)c(C(=O)Nc2nc(C)cs2)c(O)c2ccccc21 [AG-690/36956124] |  | 10% |  | 
CCCCCc1nc2cc(C)ccc2c(=O)n1NC(=O)c1c(O)c2ccccc2n(CC)c1=O [f7, N-(7-methyl-4-oxo-2-pentylquinazolin-3(4H)-yl)-1-ethyl-4-hydroxy-2-oxo-1,2-dihydroquinoline-3-carboxamide] | 24.4 ± 4.5 µM |  | 167.2 to 168.4 °C | 
CCCCCNC(=O)c1c(O)c2ccccc2n(C)c1=O [AG-690/11232717] |  | 13% |  | 
CCCCCc1nc2ccc(Cl)cc2c(=O)n1NC(=O)c1c(O)c2ccccc2n(CC)c1=O [f2, N-(6-chloro-4-oxo-2-pentylquinazolin-3(4H)-yl)-1-ethyl-4-hydroxy-2-oxo-1,2-dihydroquinoline-3-carboxamide] | 1.58 ± 0.06 µM |  | 141.5 to 143.1 °C | 
CCCCCc1nc2c(C)cccc2c(=O)n1NC(=O)c1c(O)c2ccccc2n(CC)c1=O [f11, N-(8-methyl-4-oxo-2-pentylquinazolin-3(4H)-yl)-1-ethyl-4-hydroxy-2-oxo-1,2-dihydroquinoline-3-carboxamide] | 0.77 ± 0.02 µM |  | 142.7 to 144.3 °C | 
CCn1c(=O)c(C(=O)Nn2c(C)nc3ccccc3c2=O)c(O)c2ccccc21 [f13, N-(2-methyl-4-oxoquinazolin-3(4H)-yl)-1-ethyl-4-hydroxy-2-oxo-1,2-dihydroquinoline-3-carboxamide] | 1.64 ± 0.23 µM |  |  | 
CCn1c(=O)c(C(=O)NNC(=O)c2ccccc2Br)c(O)c2ccccc21 [AG-690/11765298] |  | 45% |  | 
CCCCCc1nc2c(Cl)cccc2c(=O)n1NC(=O)c1c(O)c2ccccc2n(CC)c1=O [f10, N-(8-chloro-4-oxo-2-pentylquinazolin-3(4H)-yl)-1-ethyl-4-hydroxy-2-oxo-1,2-dihydroquinoline-3-carboxamide] | 9.7 ± 2.1 µM |  | 158.6 to 160.4 °C | 
CCCCCc1nc2cc(Cl)ccc2c(=O)n1NC(=O)c1c(O)c2ccccc2n(CC)c1=O [f6, N-(7-chloro-4-oxo-2-pentylquinazolin-3(4H)-yl)-1-ethyl-4-hydroxy-2-oxo-1,2-dihydroquinoline-3-carboxamide] | 0.83 ± 0.01 µM |  | 128.4 to 130.2 °C | 
CCCCCCn1c(=O)c(C(=O)Nc2ccccc2Br)c(O)c2ccccc21 [AG-690/11232728] |  | 12% |  | 
O=C(Nc1ccccc1-c1ccccc1)c1c(O)c2cccc3c2n(c1=O)CCC3 [AE-641/00629040] |  | 11% |  | 
CCCCCc1nc2cc(OC)c(OC)cc2c(=O)n1NC(=O)c1c(O)c2ccccc2n(CC)c1=O [f9, N-(6,7-dimethoxy-4-oxo-2-pentylquinazolin-3(4H)-yl)-1-ethyl-4-hydroxy-2-oxo-1,2-dihydroquinoline-3-carboxamide] | 1.06 ± 0.13 µM |  | 172.4 to 174.1 °C | 
CCCCCc1nc2ccc(C(F)(F)F)cc2c(=O)n1NC(=O)c1c(O)c2ccccc2n(CC)c1=O [f5, N-(4-oxo-2-pentyl-6-(trifluoromethyl)quinazolin-3(4H)-yl)-1-ethyl-4-hydroxy-2-oxo-1,2-dihydroquinoline-3-carboxamide] | 0.81 ± 0.17 µM |  | 128.3 to 130.2 °C | 
